Source: ChEMBL document CHEMBL4725318, “New vinyl-1,2,4-triazole derivatives as antimicrobial agents: Synthesis, biological evaluation and molecular docking studies” (2020)
In brackets after ≈: the same amount, converted by molar mass.

What was measured:
Type in all cases: functional
Aspergillus versicolor [1] = assay: Antifungal activity Aspergillus versicolor by microdilution method
Bacillus subtilis [2] = assay: Antibacterial activity against Bacillus subtilis by microdilution method
Aspergillus niger [3] = assay: Fungicidal activity Aspergillus niger
[4] = test system: Pectobacterium carotovorum; assay: Antibacterial activity against Erwinia carotovora by microdilution method
Penicillium ochrochloron [5] = assay: Antifungal activity Penicillium ochrochloron by microdilution method
Aspergillus fumigatus [6] = assay: Antifungal activity Aspergillus fumigatus by microdilution method
Aspergillus ochraceus [7] = assay: Fungicidal activity Aspergillus ochraceus
Aspergillus fumigatus [8] = assay: Fungicidal activity Aspergillus fumigatus
Talaromyces funiculosus [9] = assay: Fungicidal activity Penicillium funiculosum
Pseudomonas fluorescens [10] = assay: Antibacterial activity against Pseudomonas fluorescens by microdilution method
Bacillus subtilis [11] = assay: Bactericidal activity against Bacillus subtilis
[12] = test system: Pectobacterium carotovorum; assay: Bactericidal activity against Erwinia carotovora
Trichoderma viride [13] = assay: Antifungal activity Trichoderma viride by microdilution method
Trichoderma viride [14] = assay: Fungicidal activity Trichoderma viride
Penicillium ochrochloron [15] = assay: Fungicidal activity Penicillium ochrochloron
Xanthomonas campestris [16] = assay: Antibacterial activity against Xanthomonas campestris by microdilution method
Aspergillus niger [17] = assay: Antifungal activity Aspergillus niger by microdilution method
Penicillium cyclopium [18] = assay: Antifungal activity Penicillium verrucosum var. cyclopium by microdilution method
Erwinia amylovora [19] = assay: Antibacterial activity against Erwinia amylovora by microdilution method
Erwinia amylovora [20] = assay: Bactericidal activity against Erwinia amylovora
Talaromyces funiculosus [21] = assay: Antifungal activity Penicillium funiculosum by microdilution method
Pseudomonas fluorescens [22] = assay: Bactericidal activity against Pseudomonas fluorescens
Aspergillus ochraceus [23] = assay: Antifungal activity Aspergillus ochraceus by microdilution method
Penicillium cyclopium [24] = assay: Fungicidal activity Penicillium verrucosum var. cyclopium
Aspergillus versicolor [25] = assay: Fungicidal activity Aspergillus versicolor
Xanthomonas campestris [26] = assay: Bactericidal activity against Xanthomonas campestris

Row | SMILES | MIC (Aspergillus versicolor [1]) | MIC (Bacillus subtilis [2]) | MFC (Aspergillus niger [3]) | MIC [4] | MIC (Penicillium ochrochloron [5]) | MIC (Aspergillus fumigatus [6]) | MFC (Aspergillus ochraceus [7]) | MFC (Aspergillus fumigatus [8]) | MFC (Talaromyces funiculosus [9]) | MIC (Pseudomonas fluorescens [10]) | MBC (Bacillus subtilis [11]) | MBC [12] | MIC (Trichoderma viride [13]) | MFC (Trichoderma viride [14]) | MFC (Penicillium ochrochloron [15]) | MIC (Xanthomonas campestris [16]) | MIC (Aspergillus niger [17]) | MIC (Penicillium cyclopium [18]) | MIC (Erwinia amylovora [19]) | MBC (Erwinia amylovora [20]) | further results
1 | O=C(/C(=C/c1ccccc1)n1cncn1)c1ccc(Cl)cc1Cl | 80 µM (≈ 27.5 µg/mL) | 2.9 µM (≈ 0.998 µg/mL) | 220 µM (≈ 75.7 µg/mL) | 2.9 µM (≈ 0.998 µg/mL) | 160 µM (≈ 55.1 µg/mL) | 160 µM (≈ 55.1 µg/mL) | 220 µM (≈ 75.7 µg/mL) | 220 µM (≈ 75.7 µg/mL) | 440 µM (≈ 151 µg/mL) | 2.9 µM (≈ 0.998 µg/mL) | 5.8 µM (≈ 2 µg/mL) | 5.8 µM (≈ 2 µg/mL) | 50 µM (≈ 17.2 µg/mL) | 100 µM (≈ 34.4 µg/mL) | 440 µM (≈ 151 µg/mL) | 2.9 µM (≈ 0.998 µg/mL) | 160 µM (≈ 55.1 µg/mL) | 220 µM (≈ 75.7 µg/mL) | 2.9 µM (≈ 0.998 µg/mL) | 2.9 µM (≈ 0.998 µg/mL) | MIC (Talaromyces funiculosus [21]): 220 µM (≈ 75.7 µg/mL); MBC (Pseudomonas fluorescens [22]): 2.9 µM (≈ 0.998 µg/mL); MIC (Aspergillus ochraceus [23]): 100 µM (≈ 34.4 µg/mL); MFC (Penicillium cyclopium [24]): 440 µM (≈ 151 µg/mL); MFC (Aspergillus versicolor [25]): 220 µM (≈ 75.7 µg/mL); MBC (Xanthomonas campestris [26]): 2.9 µM (≈ 0.998 µg/mL)
2 | CN(C)c1ccc(/C=C(/C(=O)c2ccc(-c3ccccc3)cc2)n2cncn2)cc1 | 250 µM (≈ 98.6 µg/mL) | 2.5 µM (≈ 0.986 µg/mL) | 510 µM (≈ 201 µg/mL) | 2.5 µM (≈ 0.986 µg/mL) | 130 µM (≈ 51.3 µg/mL) | 250 µM (≈ 98.6 µg/mL) | 250 µM (≈ 98.6 µg/mL) | 510 µM (≈ 201 µg/mL) | 250 µM (≈ 98.6 µg/mL) | 2.5 µM (≈ 0.986 µg/mL) | 5.1 µM (≈ 2.01 µg/mL) | 5.1 µM (≈ 2.01 µg/mL) | 90 µM (≈ 35.5 µg/mL) | 130 µM (≈ 51.3 µg/mL) | 250 µM (≈ 98.6 µg/mL) | 5.1 µM (≈ 2.01 µg/mL) | 250 µM (≈ 98.6 µg/mL) | 250 µM (≈ 98.6 µg/mL) | 2.5 µM (≈ 0.986 µg/mL) | 2.5 µM (≈ 0.986 µg/mL) | MIC (Talaromyces funiculosus [21]): 180 µM (≈ 71 µg/mL); MBC (Pseudomonas fluorescens [22]): 2.5 µM (≈ 0.986 µg/mL); MIC (Aspergillus ochraceus [23]): 130 µM (≈ 51.3 µg/mL); MFC (Penicillium cyclopium [24]): 510 µM (≈ 201 µg/mL); MFC (Aspergillus versicolor [25]): 510 µM (≈ 201 µg/mL); MBC (Xanthomonas campestris [26]): 5.1 µM (≈ 2.01 µg/mL)
